Values of other authors, collected in US20210213090A1, “COMPOSITIONS, USES AND METHODS FOR TREATMENT AND/OR PREVENTION OF ELEVATED CHOLESTEROL, HYPERCHOLESTEROLEMIA, AND CARDIOVASCULAR DISEASE” (Nutraceutical Holdings Inc., priority 2018, published 2021).

Test system: LDL-C / cholesterol
Details: human, in vivo

## COC1=C(OC)C(=O)C(C/C=C(\C)CC/C=C(\C)CC/C=C(\C)CC/C=C(\C)CC/C=C(\C)CC/C=C(\C)CC/C=C(\C)CC/C=C(\C)CC/C=C(\C)CCC=C(C)C)=C(C)C1=O [coenzyme Q10, ubiquinone]
  effect of supplementation on statin-related muscle symptoms, in words: decreases statin-related mild-to-moderate muscle symptoms
